Assay results from US9770026B2, “Substituted pyrimidine compound and uses thereof” (Shenyang Sinochem Agrochemicals R&D Co., Ltd., priority 2012, dated 2017).

Columns and labels:
rice blast = assay: microbe, parasite or virus in culture; type: cell-based; settings: Pyricularia oryzae, read-out: inhibition rate against rice blast, 25 ppm, in vitro
wheat powdery mildew = assay: protectant activity in vivo against wheat powdery mildew; settings: Triticum aestivum, 168 h; for pest or weed control at 400 µg/mL: read-out: control effect against wheat powdery mildew (%), 400 mg/L
[1] = tested on: Green peach aphids (Myzus Persicae Sulzer); assay: bioactivity test against green peach aphid, airbrush foliar spray; type: in vivo; settings: Myzus persicae, foliar, 48 h; for pest or weed control at 1.25 µg/mL: 1.25 mg/L; for pest or weed control at 1.25 µg/mL / pest or weed control at 2.5 µg/mL / pest or weed control at 5 µg/mL / pest or weed control at 10 µg/mL / pest or weed control at 100 µg/mL / pest or weed control at 600 µg/mL: contrastive test, read-out: Insecticidal activity against peach aphid (%); for pest or weed control at 2.5 µg/mL: 2.5 mg/L; for pest or weed control at 5 µg/mL: 5 mg/L; for pest or weed control at 10 µg/mL: 10 mg/L; for pest or weed control at 100 µg/mL: 100 mg/L; for pest or weed control at 600 µg/mL: 600 mg/L
In short: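 Aphids (15-30 per cabbage leaf disc) on moist filter paper were airbrush-sprayed at 10 psi, 0.5 mL, with compound from acetone:methanol (1:1) diluted in water with 0.1% tween 80. Held at 25±1 C, 60±5% RH; survivors counted after 48 hrs to give death rates.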

cucumber downy mildew = assay: protectant activity in vivo against cucumber downy mildew; settings: Cucumis sativus, 168 h; for pest or weed control at 25 µg/mL: read-out: control effect against cucumber downy mildew (%), 25 mg/L; for pest or weed control at 50 µg/mL: read-out: control effect against cucumber downy mildew (%), 50 mg/L; for pest or weed control at 100 µg/mL: read-out: control effect against cucumber downy mildew (%), 100 mg/L; for pest or weed control at 400 µg/mL: read-out: control effect against cucumber downy mildew (%), 400 mg/L
corn rust = assay: protectant activity in vivo against corn rust; settings: Zea mays, 168 h; for pest or weed control at 6.25 µg/mL: read-out: control effect against corn rust (%), 6.25 mg/L; for pest or weed control at 6.25 µg/mL / pest or weed control at 25 µg/mL / pest or weed control at 100 µg/mL / pest or weed control at 400 µg/mL: protectant activity; for pest or weed control at 25 µg/mL: read-out: control effect against corn rust (%), 25 mg/L; for pest or weed control at 100 µg/mL: read-out: control effect against corn rust (%), 100 mg/L; for pest or weed control at 400 µg/mL: read-out: control effect against corn rust (%), 400 mg/L
carmine spider mite = assay: bioactivity test against carmine spider mite, airbrush spray; type: in vivo; settings: Tetranychus cinnabarinus, 72 h; for pest or weed control at 600 µg/mL: 600 mg/L; for pest or weed control at 100 µg/mL: 100 mg/L
In short: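 Broadbean seedlings infested with adult mites were sprayed with compound (acetone/methanol stock diluted in 0.1% Tween 80 water) by airbrush at 0.7 kg/cm^2, 0.5 ml. Three replicates were run. Mortality was scored after 72 hrs.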

armyworm = assay: bioactivity test against armyworm, airbrush spray; type: in vivo; settings: 72 h; for pest or weed control at 10 µg/mL: 10 mg/L; for pest or weed control at 600 µg/mL: 600 mg/L
cucumber gray mold = assay: fungicidal activity in vitro (inhibition rate) against cucumber gray mold; type: cell-based; settings: 25 ppm, in vitro; read-out: inhibition rate against cucumber gray mold
Diamond back moth = assay: insecticidal activity against diamond back moth, airbrush spray; type: in vivo; settings: 72 h; for pest or weed control at 10 µg/mL: 10 mg/L; for pest or weed control at 100 µg/mL: 100 mg/L; for pest or weed control at 600 µg/mL: 600 mg/L
In short: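 Airbrush leaf-disc spray test: both faces of 2 cm cabbage discs received 0.5 ml of test solution at 0.7 kg/cm^2. Solutions were made in acetone:methanol (1:1) and brought to concentration with 0.1% Tween 80 in water. Ten second-instar larvae per disc, triplicates, were held at 25° C and 60˜70% R.H., with mortality recorded at 72 hrs.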

[2] = read-out: Insecticidal activity against armyworm (%)
[3] = contrastive test, read-out: Insecticidal activity against carmine spider mite (% )

Row | SMILES | inhibition at 25 ppm (rice blast) | pest or weed control at 1.25 µg/mL [1] | pest or weed control at 2.5 µg/mL [1] | pest or weed control at 5 µg/mL [1] | pest or weed control at 10 µg/mL [1] | pest or weed control at 100 µg/mL [1] | pest or weed control at 600 µg/mL [1] | pest or weed control at 25 µg/mL (cucumber downy mildew; protectant activity) | pest or weed control at 50 µg/mL (cucumber downy mildew; protectant activity) | pest or weed control at 100 µg/mL (cucumber downy mildew; protectant activity) | pest or weed control at 400 µg/mL (cucumber downy mildew; protectant activity) | pest or weed control at 10 µg/mL (armyworm; [2]) | pest or weed control at 600 µg/mL (armyworm; [2]) | inhibition at 25 ppm (cucumber gray mold) | pest or weed control at 10 µg/mL (Diamond back moth) | pest or weed control at 100 µg/mL (Diamond back moth) | pest or weed control at 600 µg/mL (Diamond back moth) | pest or weed control at 400 µg/mL (wheat powdery mildew; protectant activity) | pest or weed control at 400 µg/mL (corn rust) | pest or weed control at 600 µg/mL (carmine spider mite; [3]) | also measured
1 | CCc1ncnc(NCCc2ccc(Oc3ccc(Cl)nn3)cc2)c1Cl [Compound I-3309] | 80 to 99% | 48% | 96% | 100% | 100% | 100% | 100% | 90% | 90% | 90% | 100% | 60% | 100% | 80 to 99% | 60% | 100% | 100% | – | – | – | pest or weed control at 400 ppm (wheat powdery mildew; read-out: protectant activity against wheat powdery mildew in vivo, 400 ppm): 100%; pest or weed control at 10 ppm ([1]; 10 ppm, death rate after 48 hrs): 100%; pest or weed control at 100 ppm ([1]; 100 ppm, death rate after 48 hrs): 100%; pest or weed control at 600 ppm ([1]; 600 ppm, death rate after 48 hrs): 100%; pest or weed control at 3.125 µg/mL (cucumber downy mildew; read-out: control effect against cucumber downy mildew (%), 3.125 mg/L, protectant activity): 50%; pest or weed control at 6.25 µg/mL (cucumber downy mildew; read-out: control effect against cucumber downy mildew (%), 6.25 mg/L, protectant activity): 60%; pest or weed control at 12.5 µg/mL (cucumber downy mildew; read-out: control effect against cucumber downy mildew (%), 12.5 mg/L, protectant activity): 70%; pest or weed control at 25 ppm (cucumber downy mildew; read-out: protectant activity against cucumber downy mildew in vivo, 25 ppm): 80 to 99%; pest or weed control at 50 ppm (cucumber downy mildew; read-out: protectant activity against cucumber downy mildew in vivo, 50 ppm): 80 to 99%; pest or weed control at 100 ppm (cucumber downy mildew; read-out: protectant activity against cucumber downy mildew in vivo, 100 ppm): 80 to 99%; pest or weed control at 400 ppm (cucumber downy mildew; read-out: protectant activity against cucumber downy mildew in vivo, 400 ppm): 100%; pest or weed control at 100 ppm (corn rust; read-out: protectant activity against corn rust in vivo, 100 ppm): 80 to 99%; pest or weed control at 100 ppm (carmine spider mite; 100 ppm, mortality after 72 hrs): 80 to 99%; pest or weed control at 600 ppm (carmine spider mite; 600 ppm, mortality after 72 hrs): 80 to 99%; pest or weed control at 100 µg/mL (armyworm; 100 mg/L, read-out: Insecticidal activity against armyworm (%)): 100%; pest or weed control at 100 ppm (armyworm; 100 ppm, mortality after 72 h): 100%; pest or weed control at 600 ppm (armyworm; 600 ppm, mortality after 72 h): 100%; pest or weed control at 100 ppm (Diamond back moth; 100 ppm, mortality after 72 hrs, read-out: control (test results against diamond back moth)): 100%; pest or weed control at 600 ppm (Diamond back moth; 600 ppm, mortality after 72 hrs, read-out: control (test results against diamond back moth)): 100%
2 | CC(Cl)c1ncnc(NCCc2ccc(Oc3nc(Cl)c(Cl)cc3Cl)cc2)c1Cl (centres unmarked) [CK63, reference compound] | 0% | – | – | – | 0% | 0% | 100% | – | – | – | 70% | – | 71% | 0% | – | – | 57% | 50% | 100% | 0% | pest or weed control at 6.25 µg/mL (corn rust): 0%; pest or weed control at 25 µg/mL (corn rust): 0%; pest or weed control at 100 µg/mL (corn rust): 30%
3 | CCc1ncnc(NC(=O)Cc2ccc(Oc3ccc(C(F)(F)F)cc3)cc2)c1Cl [CK59, reference compound] | 0% | – | – | – | 0% | 15% | 75% | – | – | – | 80% | – | 14% | 0% | – | – | 57% | 0% | 0% | 0% | –
4 | Cc1ncnc(NC(=O)Cc2ccc(Oc3ccc(C(F)(F)F)cn3)cc2)c1Cl [CK56, reference compound] | < 50% | – | – | – | 0% | 0% | 100% | 0% | 0% | 10% | 100% | – | 0% | < 50% | – | – | 0% | 70% | 70% | 32% | pest or weed control at 10 µg/mL (carmine spider mite; 10 mg/L, contrastive test, read-out: Insecticidal activity against carmine spider mite (% )): 0%; pest or weed control at 100 µg/mL (carmine spider mite; [3]): 25%
5 | CC(Cl)c1ncnc(NCCc2ccc(Oc3ncc(Cl)cc3Cl)cc2)c1Cl (centres unmarked) [CK45, reference compound] | 0% | 0% | 26% | 39% | 55% | 98% | 100% | – | – | – | – | – | 0% | < 50% | 0% | 12% | 86% | 0% | 80% | 0% | –
6 | CC(Cl)c1ncnc(NCCc2ccc(Oc3ccc(C(F)(F)F)cc3)cc2)c1Cl (centres unmarked) [CK20, reference compound] | < 50% | – | – | – | – | – | – | 0% | 0% | 10% | 100% | 0% | – | < 50% | – | – | 57% | 100% | 100% | 100% | pest or weed control at 6.25 µg/mL (wheat powdery mildew; read-out: control effect against wheat powdery mildew (%), 6.25 mg/L, protectant activity): 0%; pest or weed control at 25 µg/mL (wheat powdery mildew; read-out: control effect against wheat powdery mildew (%), 25 mg/L, protectant activity): 0%; pest or weed control at 100 µg/mL (wheat powdery mildew; read-out: control effect against wheat powdery mildew (%), 100 mg/L, protectant activity): 30%; pest or weed control at 6.25 µg/mL (corn rust): 0%; pest or weed control at 25 µg/mL (corn rust): 0%; pest or weed control at 100 µg/mL (corn rust): 70%; pest or weed control at 100 µg/mL (carmine spider mite; [3]): 72%
